The source made the active and inactive calls. No cut-off for these calls is given here.
Assays:
[1] = AUC last in BALB/c mouse at 20 mg/kg, po measured upto 24 hrs by LC-MS/MS analysis; format: ADME, organism-based; conditions: in vivo
Trypanosoma brucei [2] = test: Antiparasitic activity against blood stream form Trypanosoma brucei assessed as parasitic growth inhibition incubated for 72 hrs by resazurin dye based fluorescence analysis; format: functional, organism-based
[3] = biological target: Voltage-gated inwardly rectifying potassium channel KCNH2 (Homo sapiens, UniProt Q12809); test: Inhibition of human ERG incubated for 2 hrs by fluorescence polarization assay; format: toxicity
[4] = Growth inhibition of human A549 cells measured after 48 hrs by celltiter-glo assay; format: toxicity, cell-based
Cytochrome P450 2C19 = Cytochrome P450 2C19 (Homo sapiens, UniProt P33261); test: Inhibition of CYP2C19 (unknown origin) expressed in baculovirus infected insect cells using luciferin as substrate preincubated for 30 mins followed by NADPH addition and measured after 30 mins by luminescence based analysis; format: ADME, Insect cell
THP-1 = test: Cytotoxicity against human THP-1 cells assessed as reduction in cell viability measured after 72 hrs by MTT assay; format: functional
CYP3A4 = test: Selectivity index, ratio of IC50 for CYP3A4 (unknown origin) to EC50 for blood stream form Trypanosoma brucei; format: toxicity; conditions: read-out: Ratio IC50/EC50
Trypanosoma brucei [5] = test: Anti-parasitic activity against Trypanosoma brucei infected in BALB/c mouse model assessed as reduction of parasitemia at 20 mg/kg administered daily; format: functional, organism-based
[6] = Selectivity index, ratio of CC50 for human THP-1 cells to EC50 for bloodstream form Trypanosoma brucei; format: toxicity; conditions: read-out: Ratio CC50/EC50
CYP1A2 = test: Selectivity index, ratio of IC50 for CYP1A2 (unknown origin) to EC50 for blood stream form Trypanosoma brucei; format: toxicity; conditions: read-out: Ratio IC50/EC50
[7] = Half life in BALB/c mouse at 20 mg/kg, po measured upto 24 hrs by LC-MS/MS analysis; format: ADME, organism-based; conditions: in vivo
[8] = Mitochondrial toxicity in human A549 cells; format: cell-based
[9] = Inhibition of N-terminal his 6 tagged recombinant Trypanosoma brucei PTR1 expressed in Escherichia coli BL21 (DE3) cells preincubated for 10 mins followed by NADPH addition and measured after 10 to 50 mins by multilabel plate reader method; format: cell-based
[10] = Selectivity index, ratio of IC50 for human A549 cells to EC50 for blood stream form Trypanosoma brucei; format: toxicity; conditions: read-out: Ratio IC50/EC50
[11] = Cmax in BALB/c mouse at 20 mg/kg, po measured upto 24 hrs by LC-MS/MS analysis; format: ADME, organism-based; conditions: in vivo
CYP2D6 = test: Selectivity index, ratio of IC50 for CYP2D6 (unknown origin) to EC50 for blood stream form Trypanosoma brucei; format: toxicity; conditions: read-out: Ratio IC50/EC50
Cytochrome P450 2C9 = Cytochrome P450 2C9 (Homo sapiens, UniProt P11712); test: Inhibition of CYP2C9 (unknown origin) expressed in baculovirus infected insect cells using luciferin as substrate preincubated for 30 mins followed by NADPH addition and measured after 30 mins by luminescence based analysis; format: ADME, Insect cell
[12] = Tmax in BALB/c mouse at 20 mg/kg, po measured upto 24 hrs by LC-MS/MS analysis; format: ADME, organism-based; conditions: in vivo
Cytochrome P450 2D6 = Cytochrome P450 2D6 (Homo sapiens, UniProt P10635); test: Inhibition of CYP2D6 (unknown origin) expressed in baculovirus infected insect cells using luciferin as substrate preincubated for 30 mins followed by NADPH addition and measured after 30 mins by luminescence based analysis; format: ADME, Insect cell
[13] = Selectivity index, ratio of GI50 for human A549 cells to EC50 for blood stream form Trypanosoma brucei; format: toxicity; conditions: read-out: Ratio GI50/EC50
Cytochrome P450 3A4 = Cytochrome P450 3A4 (Homo sapiens, UniProt P08684); test: Inhibition of CYP3A4 (unknown origin) expressed in baculovirus infected insect cells using luciferin as substrate preincubated for 30 mins followed by NADPH addition and measured after 30 mins by luminescence based analysis; format: ADME, Insect cell
Leishmania infantum = test: Antiparasitic activity against Leishmania infantum intracellular amastigotes MHOM/BR/1972/BH46 infected in human THP-1 cells assessed as inhibition of parasitic growth at 50 uM pre-infected for 24 hrs followed by compound addition and measured after 48 hrs relative to control; format: functional; conditions: MHOM/BR/1972/BH46, THP-1
Pteridine reductase 1 = biological target: T1, Pteridine reductase 1 (Leishmania major, UniProt Q01782); test: Inhibition of N-terminal his 6 tagged recombinant Leishmania major PTR1 expressed in Escherichia coli BL21 (DE3) cells preincubated for 10 mins followed by NADPH addition and measured after 10 to 50 mins by multilabel plate reader method
T1 sequence (Q01782 whole entry): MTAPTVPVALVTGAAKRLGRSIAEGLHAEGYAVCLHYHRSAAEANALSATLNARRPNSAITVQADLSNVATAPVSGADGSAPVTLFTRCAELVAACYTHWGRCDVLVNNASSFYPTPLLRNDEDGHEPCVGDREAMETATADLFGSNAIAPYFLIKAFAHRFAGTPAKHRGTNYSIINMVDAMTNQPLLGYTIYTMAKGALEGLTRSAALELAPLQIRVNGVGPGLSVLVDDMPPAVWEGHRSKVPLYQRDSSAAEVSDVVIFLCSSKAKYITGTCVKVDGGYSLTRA

CYP2C19 = test: Selectivity index, ratio of IC50 for CYP2C19 (unknown origin) to EC50 for blood stream form Trypanosoma brucei; format: toxicity; conditions: read-out: Ratio IC50/EC50
hERG = test: Selectivity index, ratio of IC50 for human ERG to EC50 for blood stream form Trypanosoma brucei; format: toxicity; conditions: read-out: Ratio IC50/EC50
Cytochrome P450 1A2 = biological target: T2, Cytochrome P450 1A2 (Homo sapiens, UniProt P05177); test: Inhibition of CYP1A2 (unknown origin) expressed in baculovirus infected insect cells using luciferin as substrate preincubated for 30 mins followed by NADPH addition and measured after 30 mins by luminescence based analysis; format: ADME, Insect cell
T2 sequence (P05177 whole entry): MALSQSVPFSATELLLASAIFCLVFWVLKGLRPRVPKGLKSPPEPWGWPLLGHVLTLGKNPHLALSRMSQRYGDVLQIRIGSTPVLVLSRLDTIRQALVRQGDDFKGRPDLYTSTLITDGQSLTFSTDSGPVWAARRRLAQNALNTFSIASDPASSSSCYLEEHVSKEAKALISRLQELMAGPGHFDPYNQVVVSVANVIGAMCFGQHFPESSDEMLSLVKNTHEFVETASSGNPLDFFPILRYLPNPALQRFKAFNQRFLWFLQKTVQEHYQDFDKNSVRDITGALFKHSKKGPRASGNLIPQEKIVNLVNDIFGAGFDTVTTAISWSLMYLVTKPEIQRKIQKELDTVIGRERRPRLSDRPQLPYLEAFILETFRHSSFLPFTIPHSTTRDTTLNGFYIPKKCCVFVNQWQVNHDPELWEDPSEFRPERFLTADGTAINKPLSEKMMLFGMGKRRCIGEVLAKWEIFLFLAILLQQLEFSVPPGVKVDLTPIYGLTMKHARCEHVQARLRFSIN

CYP2C9 = test: Selectivity index, ratio of IC50 for CYP2C9 (unknown origin) to EC50 for blood stream form Trypanosoma brucei; format: toxicity; conditions: read-out: Ratio IC50/EC50
Trypanosoma brucei [14] = test: Anti-parasitic activity against Trypanosoma brucei infected in BALB/c mouse model assessed as reduction of parasitemia at 5 mg/kg/day, ip relative to control; format: functional; design: scale not given: the % may be the effect or the level left

Voltage-gated inwardly rectifying potassium channel KCNH2, sequence (Q12809 whole entry): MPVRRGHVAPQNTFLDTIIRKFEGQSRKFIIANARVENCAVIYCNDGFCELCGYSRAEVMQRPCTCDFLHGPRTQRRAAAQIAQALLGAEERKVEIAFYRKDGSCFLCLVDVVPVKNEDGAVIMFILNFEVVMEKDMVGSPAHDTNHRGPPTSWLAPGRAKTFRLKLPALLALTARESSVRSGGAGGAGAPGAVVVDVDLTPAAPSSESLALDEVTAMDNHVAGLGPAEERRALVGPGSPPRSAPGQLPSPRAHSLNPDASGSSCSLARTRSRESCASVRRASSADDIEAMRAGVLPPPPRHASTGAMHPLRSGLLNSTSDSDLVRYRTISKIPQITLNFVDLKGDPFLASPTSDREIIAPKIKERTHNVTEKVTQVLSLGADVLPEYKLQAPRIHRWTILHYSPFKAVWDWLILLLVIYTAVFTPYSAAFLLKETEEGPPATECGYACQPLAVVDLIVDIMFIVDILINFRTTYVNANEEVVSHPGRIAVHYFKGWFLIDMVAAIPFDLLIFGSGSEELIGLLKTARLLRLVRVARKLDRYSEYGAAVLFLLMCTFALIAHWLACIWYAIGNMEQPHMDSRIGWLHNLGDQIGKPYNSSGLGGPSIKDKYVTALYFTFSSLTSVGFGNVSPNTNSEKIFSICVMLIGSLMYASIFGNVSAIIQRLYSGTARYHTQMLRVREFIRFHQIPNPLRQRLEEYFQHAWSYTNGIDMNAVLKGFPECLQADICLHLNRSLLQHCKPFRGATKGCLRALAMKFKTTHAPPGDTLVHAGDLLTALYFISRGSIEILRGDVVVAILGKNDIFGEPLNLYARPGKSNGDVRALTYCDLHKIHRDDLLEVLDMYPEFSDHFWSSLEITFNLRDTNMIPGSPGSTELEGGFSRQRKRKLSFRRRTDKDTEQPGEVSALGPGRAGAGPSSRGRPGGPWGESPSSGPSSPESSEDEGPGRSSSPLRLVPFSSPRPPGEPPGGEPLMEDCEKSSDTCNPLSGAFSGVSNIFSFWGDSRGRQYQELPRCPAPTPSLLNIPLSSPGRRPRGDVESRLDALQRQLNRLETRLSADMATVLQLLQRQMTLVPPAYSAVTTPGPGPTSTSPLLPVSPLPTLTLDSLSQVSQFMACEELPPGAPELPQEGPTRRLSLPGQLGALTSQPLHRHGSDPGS
Cytochrome P450 2C9, sequence (P11712 whole entry): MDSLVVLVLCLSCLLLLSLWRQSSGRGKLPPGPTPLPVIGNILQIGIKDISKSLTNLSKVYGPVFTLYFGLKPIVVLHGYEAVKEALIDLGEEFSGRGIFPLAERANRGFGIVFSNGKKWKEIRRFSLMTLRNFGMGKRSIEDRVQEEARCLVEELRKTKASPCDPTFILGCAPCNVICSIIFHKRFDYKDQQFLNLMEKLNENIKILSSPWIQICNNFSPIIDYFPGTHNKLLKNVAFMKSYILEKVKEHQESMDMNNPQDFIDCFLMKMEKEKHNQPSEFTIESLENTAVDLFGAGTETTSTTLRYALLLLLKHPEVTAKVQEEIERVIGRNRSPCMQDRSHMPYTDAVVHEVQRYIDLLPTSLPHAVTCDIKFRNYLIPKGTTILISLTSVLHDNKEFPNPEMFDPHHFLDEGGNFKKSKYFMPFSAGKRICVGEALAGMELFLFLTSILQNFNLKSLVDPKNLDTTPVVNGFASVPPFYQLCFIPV
Cytochrome P450 2D6, sequence (P10635 whole entry): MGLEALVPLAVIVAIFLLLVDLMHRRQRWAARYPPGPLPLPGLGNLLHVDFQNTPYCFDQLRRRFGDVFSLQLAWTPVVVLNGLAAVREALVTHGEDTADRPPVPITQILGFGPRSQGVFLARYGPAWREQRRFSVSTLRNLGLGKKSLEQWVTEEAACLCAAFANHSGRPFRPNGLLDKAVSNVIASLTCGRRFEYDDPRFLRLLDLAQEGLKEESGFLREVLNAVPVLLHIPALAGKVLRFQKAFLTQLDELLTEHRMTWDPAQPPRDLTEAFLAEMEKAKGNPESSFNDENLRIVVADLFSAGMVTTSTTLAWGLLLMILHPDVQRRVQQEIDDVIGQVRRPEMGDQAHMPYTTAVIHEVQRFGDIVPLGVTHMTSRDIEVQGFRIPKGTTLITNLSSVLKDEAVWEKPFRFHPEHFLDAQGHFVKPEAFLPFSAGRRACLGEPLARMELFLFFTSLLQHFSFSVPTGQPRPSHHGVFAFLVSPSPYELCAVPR
Cytochrome P450 2C19, sequence (P33261 whole entry): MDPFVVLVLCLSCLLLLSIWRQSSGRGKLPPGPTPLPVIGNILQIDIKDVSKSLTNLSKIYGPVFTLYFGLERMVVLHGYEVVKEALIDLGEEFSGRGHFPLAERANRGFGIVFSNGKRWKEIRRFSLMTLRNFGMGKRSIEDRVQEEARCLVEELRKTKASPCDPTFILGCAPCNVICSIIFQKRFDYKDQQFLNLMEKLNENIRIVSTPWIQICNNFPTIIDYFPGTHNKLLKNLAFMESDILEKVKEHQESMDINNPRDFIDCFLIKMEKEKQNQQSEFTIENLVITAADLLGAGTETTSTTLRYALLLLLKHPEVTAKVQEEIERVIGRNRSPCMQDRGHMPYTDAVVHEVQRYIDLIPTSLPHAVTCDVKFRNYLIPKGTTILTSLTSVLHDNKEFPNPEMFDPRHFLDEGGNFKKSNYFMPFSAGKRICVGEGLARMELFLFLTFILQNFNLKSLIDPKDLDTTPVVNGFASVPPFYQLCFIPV
Cytochrome P450 3A4, sequence (P08684 whole entry): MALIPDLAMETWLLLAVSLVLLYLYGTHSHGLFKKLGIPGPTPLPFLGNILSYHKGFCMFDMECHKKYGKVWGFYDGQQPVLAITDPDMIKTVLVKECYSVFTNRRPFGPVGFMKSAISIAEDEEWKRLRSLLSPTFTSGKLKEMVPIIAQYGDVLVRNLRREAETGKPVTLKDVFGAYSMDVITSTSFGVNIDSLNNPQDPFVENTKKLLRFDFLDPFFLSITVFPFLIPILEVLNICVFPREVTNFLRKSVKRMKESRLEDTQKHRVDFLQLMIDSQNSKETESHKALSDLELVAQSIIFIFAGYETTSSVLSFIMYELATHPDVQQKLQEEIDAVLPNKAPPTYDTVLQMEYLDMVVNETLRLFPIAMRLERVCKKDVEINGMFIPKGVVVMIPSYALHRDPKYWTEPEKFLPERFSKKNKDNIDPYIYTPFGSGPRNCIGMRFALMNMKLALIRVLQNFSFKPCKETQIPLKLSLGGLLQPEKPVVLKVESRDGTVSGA

For `Nc1nc(N)c(C(C[N+](=O)[O-])c2csc3ccccc23)c(N)n1` (stereo not given), the AUC(0-t) at 24 h [1] was 5290 ng·h/mL, the EC50 (Trypanosoma brucei [2]) was 0.09 µM and the IC50 [3] was 16 µM. It also gave a GI50 at 48 h [4] of 10.6 µM, an IC50 (Cytochrome P450 2C19) of 15.3 µM and a CC50 (THP-1) of 12.5 µM. The selectivity ratio (CYP3A4) was over 1100, the Activity (Trypanosoma brucei [5]) was “inactive” and the selectivity ratio [6] was 139. It also gave a selectivity ratio (CYP1A2) of 33, a half-life [7] of 2.1 h and an IC50 [8] of 10.4 µM. For the same compound, the IC50 [9] was 0.3 µM, the selectivity ratio [10] was 115 and the Cmax [11] was 828 ng/mL. For the same compound, the selectivity ratio (CYP2D6) was 113, the IC50 (Cytochrome P450 2C9) was 24.4 µM and the Tmax [12] was 1 h. The IC50 (Cytochrome P450 2D6) was 10.2 µM, the selectivity ratio [13] was 117 and the IC50 (Cytochrome P450 3A4) was over 100 µM. The inhibition at 50 µM (Leishmania infantum) was 49%, the IC50 (Pteridine reductase 1) was 47.4 µM and the selectivity ratio (CYP2C19) was 170. The selectivity ratio (hERG) was 178, the IC50 (Cytochrome P450 1A2) was 3 µM and the selectivity ratio (CYP2C9) was 271.
`N=C(N)c1ccc(OCCCCCOc2ccc(C(=N)N)cc2)cc1` [PENTAMIDINE] showed an EC50 (Trypanosoma brucei [2]) of 0.004 µM, an Activity (Trypanosoma brucei [14]) of 100% and an IC50 (Pteridine reductase 1) of 87.1 µM.

Source: ChEMBL document CHEMBL5528010, “The discovery of aryl-2-nitroethyl triamino pyrimidines as anti-Trypanosoma brucei agents” (Eur J Med Chem, 2024)
